pIC50: −log10 of the molar value. Values joined by “and” are separate entries in the source; they are usually repeats but may differ in a detail not shown here. Equal entries are not always repeated. Where two headings read alike, the source gives them in different places. Where a SMILES comes first, the peptide text is derived from it. Bridges are numbered along the chain shown (N, C = ends). Roman numbers before positions name the chains, in order. Triazole bridges read from a SMILES are 1,4-linked. [ ]: non-standard residue; d: D form. Lys(N3) = [N-]=[N+]=NCCCC[C@H](N)C(=O)O; Az4 = C-terminal azide group; dPra = C#CC[C@@H](N)C(=O)O; code X = not defined here

A short description of data set [1]: plasma protein binding by equilibrium dialysis. In kind it is in vitro ADME. The following applies: 10 μM, 37° C. overnight. The protocol:
Equilibrium dialysis techniques were used to separate the fraction of unbound test compound from the fraction that is bound to protein.
Assays were carried out in a 96-well format in a dialysis block constructed from Teflon. The protein matrix was spiked with the test compound at 10 μM (n=2) with a final DMSO concentration of 1% (v/v). The dialysate compartment was loaded with 150 μL phosphate buffer (pH 7.5) and the sample side was loaded with equal volume of the spiked protein matrix. The dialysis plate was then sealed and incubated at 37° C. overnight (18±2 hours). After the incubation, samples were taken from each compartment, diluted with the phosphate buffer followed by addition of acetonitrile and centrifugation. The supernatants were then used for HPLC-MS/MS analysis. A control sample (n=2) was prepared from the spiked protein matrix in the same manner as the assay samples (without dialysis). This control sample served as the basis for the recovery determination. Samples were analyzed by HPLC-MS/MS using selected reaction monitoring. The HPLC conditions consisted of a binary LC pump with autosampler, a C18 column (2×20 mm), and gradient elution. The percent bound to proteins and the recovery were calculated as follows:
[formula] […] The recovery determination served as an indicator of reliability of the calculated protein binding value.

In data set [2] the test system is Human umbilical vein endothelial cells (HUVECs). Put plainly: inhibition of HUVEC proliferation. The following applies: 48 h, read-out: IC50 (antagonist). In kind it is cell-based.
Protocol: HUVECs were cultured in M199 medium (pH 7.4) in 5% CO2 at 37° C. for 18 hours. Test compound and/or vehicle were incubated with cells (1.1×10^5/mL) in the presence of heparin (10 μg/mL) and 0.5% FBS at 37° C. for 48 hours. Capture agents were screened at 10, 1, 0.1, 0.01 and 0.001 μM and in duplicate. […] Subsequently, the reagent Calcein AM dye (20 μg/ml) was added for an additional 50 minute incubation period. Fluorescence intensity was read on SpectroFluor Plus plate reader.
Data set [3] can be described thus: plasma concentrations and pharmacokinetics of VEGF-PCC after a single IV or IP dose in mice, LC-MS/MS. In kind it is in vivo, mouse. The following applies: for Plasma concentration: individual animal; for C0: iv. From the text:
Test article: VEGF-PCC (IN-VT-1001 Triligand) (PCC monomer) Ac-[…]-Tz4-lfrew-Tz4-eeird (SEQ ID NO: 71). The underlined region inclusive of the Cys residues is cyclized by a disulfide bond, Ac=N-terminal acetylation, and Tz4=1,4-disubstituted 1,2,3-triazole.
The LC-MS/MS system for analysis was comprised of an Agilent 1200 high performance liquid chromatography (HPLC) and a 5500 Qtrap mass spectrometer (Applied Biosystems by Life Technologies, Carlsbad, Calif.).
Concentrations of VEGF-PCC in mouse plasma were determined using a non-validated LC MS/MS assay with Angiotensin I as the internal standard following a solid phase extraction method. Individual VEGF-PCC calibration and QC standards were prepared from the respective intermediate stock solutions by addition to naïve mouse plasma. The target working range of the calibration curve was 50 to 5,000 ng/mL in plasma and the target concentrations of the QC standards were 150 to 3,750 ng/mL in plasma for VEGF-PCC.
Mice received a single IV dose of VEGF-PCC at 1 mg/kg. A summary of the plasma concentrations for individual animals is shown in Table A. Plasma pharmacokinetic parameters are listed in Table 9.
Mice received a single IP dose of VEGF-PCC at 5 mg/kg. A summary of the plasma concentrations for individual animals is shown in Table B. Plasma pharmacokinetic parameters are listed in Table 9.

The target of data set [4] is T1, human VEGF165 binding to VEGFR2 (KDR) (Homo sapiens, UniProt P15692).
T1 construct: biotin (chemical labelling, Sulfo-NHS-LC-biotin); purchased R&D Systems (partner VEGFR2-Fc only)
T1 sequence (P15692 27-191 isoform P15692-4): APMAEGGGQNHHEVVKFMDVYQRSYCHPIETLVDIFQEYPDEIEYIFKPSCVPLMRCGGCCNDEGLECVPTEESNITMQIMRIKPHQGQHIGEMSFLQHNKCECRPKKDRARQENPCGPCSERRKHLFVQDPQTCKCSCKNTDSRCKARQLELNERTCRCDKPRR
Put plainly: competitive ELISA, inhibition of VEGF165 binding to VEGFR2. The following applies: concentrations tested <50 μM. The method, then: The solutions from the tubes were then transferred to the ELISA plates and incubated for 5 minutes. […] Using an excitation wavelength of 535 nm, fluorescent emission at 595 nm was recorded by Beckman Coulter DTX880 photometer (Brea, Calif.) as a function of capture agent concentration. The titration curves were fit using a four-parameter regression curve fitting program (Origin 8.5, Northampton, Mass.). Concentrations of peptides corresponding to the midpoint absorbance of the titration curve were calculated and used as the IC50 values.

The mark [5] stands for this setting: in vivo, mouse plasma, IP, 5 mg/kg.
[6] abbreviates: in vivo, mouse plasma, IV, 1 mg/kg.

As for `C=C(NC(=O)[C@@H]1CCCN1C(=O)[C@H](CCC(=O)O)NC(=O)[C@@H](C)C(C)C)C(=O)N[C@@H]1CSSCC(C(=O)N[C@@H](Cc2ccccc2)C(=O)NC(CCC(=O)O)C(=O)NC(CCCN)C(=O)N[C@@H](CC(C)C)C(=O)NC(CCCCn2cc(CC(N)C(=O)NC(Cc3ccccc3)C(=O)N[C@H](CO)C(=O)N[C@H](CCCNC(=N)N)C(=O)NC(CCCCN)C(=O)N[C@@H](C(=O)NC(CCC(=O)O)C(N)=O)C(C)O)nn2)C(=O)O)NC(=O)[C@H](CCC(=O)O)NC(=O)[C@H](Cc2c[nH]c3ccccc23)NC(=O)[C@H](CCC(=O)O)NC(=O)[C@H](Cc2c[nH]c3ccccc23)NC(=O)[C@H](CCSC)NC(=O)[C@H](C(C)C)NC(=O)[C@H](Cc2cnc[nH]2)NC(=O)C([C@@H](C)CC)NC(=O)[C@H](CC(=O)O)NC1=O` (stereo partly shown) [Biligand 3], the plasma protein binding result in data set [1] was “higher levels of plasma protein binding”.
In the case of `Cc1cc(C)c(/C=C2\C(=O)Nc3ccccc32)[nH]1` [SU5416], the pIC50 in data set [2] is 7.32.
`CC[C@@H](C)[C@@H](NC(=O)[C@@H](CCC(=O)O)NC(=O)[C@@H](CCC(=O)O)NC(=O)[C@H](N)Cc1cn(CCCC[C@H](NC(=O)[C@@H](Cc2c[nH]c3ccccc23)NC(=O)[C@@H](CCC(=O)O)NC(=O)[C@@H](CCCNC(=N)N)NC(=O)[C@@H](Cc2ccccc2)NC(=O)[C@@H](CC(C)C)NC(=O)[C@H](N)Cc2cn(CCCC[C@H](NC(=O)[C@H](CC(C)C)NC(=O)[C@H](CCCNC(=N)N)NC(=O)[C@H](CCC(=O)O)NC(=O)[C@H](Cc3ccccc3)NC(=O)[C@@H]3CSSC[C@H](NC(=O)[C@H](CC(N)=O)NC(=O)[C@@H]4CCCN4C(=O)[C@H](CCC(=O)O)NC(=O)[C@@H](NC(C)=O)C(C)C)C(=O)N[C@@H](CC(=O)O)C(=O)N[C@@H]([C@@H](C)CC)C(=O)N[C@@H](Cc4c[nH]cn4)C(=O)N[C@@H](C(C)C)C(=O)N[C@@H](CCSC)C(=O)N[C@@H](Cc4c[nH]c5ccccc45)C(=O)N[C@@H](CCC(=O)O)C(=O)N[C@@H](Cc4c[nH]c5ccccc45)C(=O)N[C@@H](CCC(=O)O)C(=O)N3)C(=O)O)nn2)C(=O)O)nn1)C(=O)N[C@H](CCCNC(=N)N)C(=O)N[C@H](CC(=O)O)C(N)=O` [VEGF-PCC] (I: Ac-VEPNCDIHVMWEWECFERL[Lys(N3)]-OH / II: H-[dPra][dL][dF][dR][dE][dW][Lys(N3)]-OH / III: H-[dPra][dE][dE][dI][dR][dD]-NH2; disulfide I:5-I:15; triazole I:20-II:1, II:7-III:1): the AUC(0-inf) in data set [3] (setting [5]) amounted to 32200 ng·h/mL; in data set [3] (setting [6]), 6490 ng·h/mL. Besides, the AUC(0-t) in data set [3] (setting [5]) stood at 31500 ng·h/mL; in data set [3] (setting [6]), 6070 ng·h/mL. This compound also displayed a Cmax in data set [3] (setting [5]) of 19800 ng/mL. Besides, the time to peak (Tmax) in data set [3] (setting [5]) is 30 min. Besides, the clearance in data set [3] (setting [6]) worked out at 2.57 mL/min/kg. In data set [3] (setting [6]), this compound had a half-life of 35.9 min. The Vd in data set [3] (in vivo, mouse plasma, IV, 1 mg/kg, read-out: Vss) worked out at 0.0967 L/kg. The Plasma concentration in data set [3] (IP 5 mg/kg, 10 minutes postdose, listed as IN-VT-1001, 5 mg/kg) is 17500 ng/mL and 17000 ng/mL and 13400 ng/mL; in data set [3] (IP 5 mg/kg, 30 minutes postdose, listed as IN-VT-1001, 5 mg/kg), 19400 ng/mL and 20200 ng/mL and BLQ; in data set [3] (IP 5 mg/kg, 60 minutes postdose, listed as IN-VT-1001, 5 mg/kg), 10800 ng/mL and 23900 ng/mL and 11500 ng/mL; in data set [3] (IP 5 mg/kg, 120 minutes postdose, listed as IN-VT-1001, 5 mg/kg) it was “BLQ and 4730 ng/mL and 3640 ng/mL”; in data set [3] (IP 5 mg/kg, 240 minutes postdose, listed as IN-VT-1001, 5 mg/kg) it was 259 ng/mL and 807 ng/mL and BLQ; in data set [3] (IP 5 mg/kg, 360 minutes postdose, listed as IN-VT-1001, 5 mg/kg) it was 390 ng/mL and BLQ (2×). In addition, the Plasma concentration result was “BLQ” in data set [3] (IP 5 mg/kg, 480 minutes postdose); “BLQ” in data set [3] (IP 5 mg/kg, 1440 minutes postdose); 14200 ng/mL and 16200 ng/mL and 12000 ng/mL in data set [3] (IV 1 mg/kg, 3 minutes postdose, listed as IN-VT-1001, 1 mg/kg); 7220 ng/mL and 7550 ng/mL and 6110 ng/mL in data set [3] (IV 1 mg/kg, 10 minutes postdose, listed as IN-VT-1001, 1 mg/kg); 2170 ng/mL and 2210 ng/mL and 3420 ng/mL in data set [3] (IV 1 mg/kg, 30 minutes postdose, listed as IN-VT-1001, 1 mg/kg); 1840 ng/mL and 2380 ng/mL and 1870 ng/mL in data set [3] (IV 1 mg/kg, 60 minutes postdose, listed as IN-VT-1001, 1 mg/kg). Also, the Plasma concentration in data set [3] (IV 1 mg/kg, 120 minutes postdose, listed as IN-VT-1001, 1 mg/kg) was 551 ng/mL and 400 ng/mL and 514 ng/mL; in data set [3] (IV 1 mg/kg, 240 minutes postdose) it was “BLQ”; in data set [3] (IV 1 mg/kg, 360 minutes postdose), “BLQ”; in data set [3] (IV 1 mg/kg, 1440 minutes postdose), “BLQ”. Besides, the Mean plasma concentration is reported as 0.00 ng/mL in data set [3] (mean, IP 5 mg/kg, 480 minutes postdose); 0.00 ng/mL in data set [3] (mean, IP 5 mg/kg, 1440 minutes postdose); 0.00 ng/mL in data set [3] (mean, IV 1 mg/kg, 240 minutes postdose); 0.00 ng/mL in data set [3] (mean, IV 1 mg/kg, 360 minutes postdose); 0.00 ng/mL in data set [3] (mean, IV 1 mg/kg, 1440 minutes postdose). Further, the “AUC % Ext” value was 2.04% in data set [3] (mouse plasma, IP, 5 mg/kg) and 6.49% in data set [3] (mouse plasma, IV, 1 mg/kg). The bioavailability in data set [3] (mouse, in vivo, ip, 5 mg/kg, mouse plasma, IP, 5 mg/kg, read-out: F (relative bioavailability)) is around 99%. In addition, the C0 in data set [3] (mouse, in vivo, 1 mg/kg, assuming IV dose 1 mg/kg, body weight 33 g, blood volume approximately 1.7 mL, read-out: theoretical C0) was around 19400 ng/mL; in data set [3] (mouse, in vivo, 1 mg/kg, mouse plasma, IV, 1 mg/kg, read-out: C0 (back-calculated)), 19100 ng/mL. The level at 10 min in data set [3] (mouse, plasma, mean, IP 5 mg/kg, 10 minutes postdose, read-out: Mean plasma concentration) was determined as 16000 ng/mL; in data set [3] (mouse, plasma, mean, IV 1 mg/kg, 10 minutes postdose, read-out: Mean plasma concentration) it was 6960 ng/mL. The level at 0.5 h is 13200 ng/mL in data set [3] (mouse, plasma, mean, IP 5 mg/kg, 30 minutes postdose, read-out: Mean plasma concentration) and 2600 ng/mL in data set [3] (mouse, plasma, mean, IV 1 mg/kg, 30 minutes postdose, read-out: Mean plasma concentration). Moreover, the level at 1 h in data set [3] (mouse, plasma, mean, IP 5 mg/kg, 60 minutes postdose, read-out: Mean plasma concentration) stood at 15400 ng/mL; in data set [3] (mouse, plasma, mean, IV 1 mg/kg, 60 minutes postdose, read-out: Mean plasma concentration) it was 2030 ng/mL. The level at 2 h is 2790 ng/mL in data set [3] (mouse, plasma, mean, IP 5 mg/kg, 120 minutes postdose, read-out: Mean plasma concentration) and 488 ng/mL in data set [3] (mouse, plasma, mean, IV 1 mg/kg, 120 minutes postdose, read-out: Mean plasma concentration). For the same compound, in data set [3] (mouse, plasma, mean, IP 5 mg/kg, 240 minutes postdose, read-out: Mean plasma concentration), the level at 4 h came out at 355 ng/mL. Moreover, the level at 6 h in data set [3] (mouse, plasma, mean, IP 5 mg/kg, 360 minutes postdose, read-out: Mean plasma concentration) was found to be 130 ng/mL. Besides, the level at 0.05 h in data set [3] (mouse, plasma, mean, IV 1 mg/kg, 3 minutes postdose, read-out: Mean plasma concentration) came out at 14100 ng/mL.
Turning to “X-VEPNCDIHVMWEWECFERL-Az4 ({code X}-VEPNCDIHVMWEWECFERL-Az4; cysteine pairing not given here; reading uncertain) [anchor, reference compound]”, the “blocking of receptor binding at the concentrations tested” value in data set [4] is reported as “Neither the anchor nor Biligand 2 blocked receptor binding”.

The values above are taken from US8710180B2, “VEGF-specific capture agents, compositions, and methods of using and making” (Indi Molecular, Inc., priority 2011, dated 2014).
